Assay results taken from PubChem BioAssay (NCI).
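Assay format: 96-well plates, 48-hour exposure. TGI: total growth inhibition.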

Legend:
Assay in all cases: growth of human tumour cells (NCI), 48 h
K-562 leukemia = system: K-562 leukemia
HCC-2998 colon = system: HCC-2998 colon
SK-OV-3 ovarian = system: SK-OV-3 ovarian
SF-268 CNS = system: SF-268 CNS
NCI-H23 lung = system: NCI-H23 lung
UACC-257 melanoma = system: UACC-257 melanoma
HT29 colon = system: HT29 colon
SK-MEL-5 melanoma = system: SK-MEL-5 melanoma
HL-60(TB) leukemia = system: HL-60(TB) leukemia
SF-295 CNS = system: SF-295 CNS
OVCAR-8 ovarian = system: OVCAR-8 ovarian
EKVX NSCLC = system: EKVX NSCLC
SF-539 CNS = system: SF-539 CNS
T-47D breast = system: T-47D breast
MCF7 breast = system: MCF7 breast
MDA-MB-231 breast = system: MDA-MB-231 breast

COC(=O)c1onc(-c2c(OC)cc(OC)cc2OC)c1C(=O)OC
TGI (K-562 leukemia): > 100 µM
TGI (HCC-2998 colon): > 100 µM
TGI (SK-OV-3 ovarian): > 100 µM
TGI (SF-268 CNS): > 100 µM
TGI (NCI-H23 lung): > 100 µM
TGI (UACC-257 melanoma): > 100 µM
TGI (HT29 colon): > 100 µM
TGI (SK-MEL-5 melanoma): > 100 µM
TGI (HL-60(TB) leukemia): > 100 µM
TGI (SF-295 CNS): > 100 µM
TGI (OVCAR-8 ovarian): > 100 µM
TGI (EKVX NSCLC): > 100 µM

Cc1ccc(-c2nnc(-c3nn(-c4ccccc4)c4nc5ccccc5nc34)o2)cc1
TGI (K-562 leukemia): 61.9 µM
TGI (SK-OV-3 ovarian): 24.4 µM
TGI (SF-268 CNS): 38.4 µM
TGI (NCI-H23 lung): 40.6 µM
TGI (UACC-257 melanoma): > 100 µM
TGI (HT29 colon): > 100 µM
TGI (SK-MEL-5 melanoma): 25.8 µM
TGI (HL-60(TB) leukemia): > 100 µM
TGI (SF-539 CNS): 9.62 µM
TGI (SF-295 CNS): 36.8 µM
TGI (OVCAR-8 ovarian): 25.7 µM
TGI (EKVX NSCLC): > 100 µM

COc1cccc(NC(=O)CSc2nnc(-c3ccc(NC(C)=O)cc3)o2)c1
TGI (K-562 leukemia): > 100 µM
TGI (SK-OV-3 ovarian): > 100 µM
TGI (SF-268 CNS): > 100 µM
TGI (NCI-H23 lung): > 100 µM
TGI (UACC-257 melanoma): > 100 µM
TGI (HT29 colon): > 100 µM
TGI (SK-MEL-5 melanoma): > 100 µM
TGI (HL-60(TB) leukemia): > 100 µM
TGI (SF-295 CNS): > 100 µM
TGI (OVCAR-8 ovarian): > 100 µM

COc1ccc2c(c1)C(=O)C1CC(=O)CCC21 (configuration not stated)
TGI (K-562 leukemia): > 100 µM
TGI (HCC-2998 colon): > 100 µM
TGI (SK-OV-3 ovarian): > 100 µM
TGI (SF-268 CNS): > 100 µM
TGI (NCI-H23 lung): > 100 µM
TGI (UACC-257 melanoma): > 100 µM
TGI (HT29 colon): > 100 µM
TGI (SK-MEL-5 melanoma): > 100 µM
TGI (HL-60(TB) leukemia): > 100 µM
TGI (SF-539 CNS): > 100 µM
TGI (SF-295 CNS): > 100 µM
TGI (OVCAR-8 ovarian): > 100 µM
TGI (EKVX NSCLC): > 100 µM

O=S1(=O)OCCOS(=O)(=O)C1(F)Br
TGI (K-562 leukemia): > 100 µM
TGI (HCC-2998 colon): > 100 µM
TGI (SK-OV-3 ovarian): > 100 µM
TGI (SF-268 CNS): > 100 µM
TGI (NCI-H23 lung): > 100 µM
TGI (UACC-257 melanoma): > 100 µM
TGI (HT29 colon): > 100 µM
TGI (SK-MEL-5 melanoma): > 100 µM
TGI (HL-60(TB) leukemia): > 100 µM
TGI (T-47D breast): > 100 µM
TGI (SF-539 CNS): > 100 µM
TGI (SF-295 CNS): > 100 µM
TGI (OVCAR-8 ovarian): > 100 µM
TGI (MCF7 breast): > 100 µM
TGI (EKVX NSCLC): > 100 µM

CCN1C(=O)c2cc(OC)c(OC)cc2C(=O)C12OC(=O)c1cc3c(cc12)OCO3 (configuration not stated)
TGI (K-562 leukemia): > 100 µM
TGI (HCC-2998 colon): > 100 µM
TGI (SF-268 CNS): > 100 µM
TGI (NCI-H23 lung): > 100 µM
TGI (UACC-257 melanoma): > 100 µM
TGI (HT29 colon): > 100 µM
TGI (SK-MEL-5 melanoma): > 100 µM
TGI (MDA-MB-231 breast): > 100 µM
TGI (SF-539 CNS): > 100 µM
TGI (SF-295 CNS): > 100 µM
TGI (OVCAR-8 ovarian): > 100 µM
TGI (MCF7 breast): > 100 µM
TGI (EKVX NSCLC): > 100 µM

Cc1[nH]c2ccccc2c1C(=O)CC1(O)C(=O)Nc2c(Cl)cc(Cl)cc21 (configuration not stated)
TGI (K-562 leukemia): 58 µM
TGI (HCC-2998 colon): > 100 µM
TGI (SK-OV-3 ovarian): > 100 µM
TGI (SF-268 CNS): 57.3 µM
TGI (NCI-H23 lung): 44.5 µM
TGI (UACC-257 melanoma): 31.5 µM
TGI (HT29 colon): > 100 µM
TGI (SK-MEL-5 melanoma): 31.5 µM
TGI (HL-60(TB) leukemia): 37.6 µM
TGI (SF-539 CNS): 61.7 µM
TGI (SF-295 CNS): 56.2 µM
TGI (OVCAR-8 ovarian): 70.4 µM

Cc1ccc2c(C3Cc4ccccc4N3C(=O)/C=C\C(=O)O)c(C)[nH]c2c1 (configuration not stated)
TGI (K-562 leukemia): 73 µM
TGI (HCC-2998 colon): > 100 µM
TGI (SK-OV-3 ovarian): > 100 µM
TGI (NCI-H23 lung): > 100 µM
TGI (UACC-257 melanoma): > 100 µM
TGI (HT29 colon): > 100 µM
TGI (SK-MEL-5 melanoma): > 100 µM
TGI (HL-60(TB) leukemia): 43.8 µM
TGI (SF-539 CNS): > 100 µM
TGI (SF-295 CNS): > 100 µM
TGI (OVCAR-8 ovarian): > 100 µM
TGI (EKVX NSCLC): > 100 µM

C/C=C1\CN2CCc3c([nH]c4ccccc34)C2CC1C(=O)OC (configuration not stated)
TGI (K-562 leukemia): > 322 µM
TGI (HCC-2998 colon): > 322 µM
TGI (SK-OV-3 ovarian): > 322 µM
TGI (SF-268 CNS): > 322 µM
TGI (NCI-H23 lung): > 322 µM
TGI (UACC-257 melanoma): > 322 µM
TGI (HT29 colon): > 322 µM
TGI (SK-MEL-5 melanoma): > 322 µM
TGI (HL-60(TB) leukemia): > 32.2 µM
TGI (SF-539 CNS): > 322 µM
TGI (SF-295 CNS): > 322 µM
TGI (OVCAR-8 ovarian): > 322 µM
TGI (EKVX NSCLC): > 322 µM
